US11447479B2, “Compounds active towards nuclear receptors” (NUEVOLUTION A/S, priority 2019, dated 2022)

The compounds below were run against T1, RORγ (Homo sapiens, UniProt P51449) (assay: RORγ Reporter Assay (Gal4)). Conditions: HEK293 co-transfected with RORγ LBD-Gal4 and luciferase reporter, 24 h incubation, absolute IC50; read-out: IC50.
T1 construct: Gal4 (galactose-responsive transcription factor); expressed in transfected cells; host or cells: HEK293
T1 sequence (P51449 269-508 limits assumed): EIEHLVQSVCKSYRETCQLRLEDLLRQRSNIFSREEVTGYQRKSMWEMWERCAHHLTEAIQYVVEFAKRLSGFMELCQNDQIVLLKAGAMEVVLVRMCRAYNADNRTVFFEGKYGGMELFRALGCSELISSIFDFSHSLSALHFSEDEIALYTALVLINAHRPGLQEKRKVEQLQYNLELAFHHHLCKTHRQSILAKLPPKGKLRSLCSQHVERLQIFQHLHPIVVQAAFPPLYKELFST
Format: cell-based
Experimental: RORγ Reporter Assay (Gal4)
The HEK293 cell line is co-transfected transiently with two plasmids, one with the RORγ ligand-binding domain fused to galactose-responsive transcription factor (Gal4), and the other with the luciferase reporter gene and Gal binding sites (UAS). This construction allows to determine the RORγ activity in a cellular system through the measurement of luminescence.
A suspension of RORγ reporter cells was dispensed into plates and cultured 2 h at 37° C. and 5% CO2. Media formulation consisted in DMEM/F-12 medium (Gibco) supplemented with 10% heat inactivated FBS (Sigma-Aldrich), non-essential aminoacids (Sigma-Aldrich), 2 mM Glutamax (Gibco) and 100 U/mF penicillin (Sigma-Aldrich). Dose-response curves with compounds were prepared in 100% DMSO and further diluted […] in culture medium. Compound solutions were added to the plate containing cells (final DMSO concentration of 0.1%) and incubated for 24 h at 37° C. and 5% CO2. Luciferase detection reagent was added to each well, and relative light units […] were quantified from each assay well using a plate reading luminometer.
Values of average RFU±S.D. were computed for all treatment sets, followed by the calculations of percent-reduction of RORγ activity in response to respective test compound. The following formula was used: activity=100*[1−[x test compound/average vehicle]where the theoretical minimum reduction (0% reduction).

| IC50 | Structure (SMILES) |
| --- | --- |
| 51 nM | NC(=O)CN1CCC(F)(CNc2ncnc(N3CCOC[C@@H]3c3ccc(OC(F)(F)F)cc3)c2F)CC1 [Example H6-6, (S)-2-(4-fluoro-4-(((5-fluoro-6-(3-(4-(trifluoromethoxy)phenyl)morpholino)pyrimidin-4-yl)amino)methyl)piperidin-1-yl)acetamide] |
| 360 nM | NC(=O)CN1CCC(CNc2ncnc(N3CCOC[C@@H]3c3ccc(C(F)(F)F)cn3)c2F)C(F)(F)C1 (single isomer, unassigned) [Example H6-11-1, 2-((R*)-3,3-difluoro-4-(((5-fluoro-6-((S)-3-(5-(trifluoromethyl)pyridin-2-yl)morpholino)pyrimidin-4-yl)amino)methyl)piperidin-1-yl)acetamide] |
| 20 nM | NC(=O)CN1CC[C@H](CNc2ncnc(N3CCOC[C@@H]3c3ccc(C(F)(F)F)cc3)c2F)[C@@H](O)C1 (single isomer, unassigned) [Example H6-7-1, 2-((3R*,4R*)-4-(((5-fluoro-6-((S)-3-(4-(trifluoromethyl)phenyl)morpholino)pyrimidin-4-yl)amino)methyl)-3-hydroxypiperidin-1-yl)acetamide] |
| 60 nM | C[C@@H]1COC[C@H](c2ccc(C(F)(F)F)cc2)N1c1ncnc(NC[C@@H]2CCN(CC(N)=O)C[C@H]2O)c1F (single isomer, unassigned) [Example H6-22-2] |
| 330 nM | NC(=O)CN1CCC(CNc2ncnc(N3CCOC[C@@H]3c3ccc(C(F)(F)F)cn3)c2F)CC1 [Example H6-2, (S)-2-(4-(((5-fluoro-6-(3-(5-(trifluoromethyl)pyridin-2-yl)morpholino)pyrimidin-4-yl)amino)methyl)piperidin-1-yl)acetamide] |
| 160 nM | NC(=O)CN1CC[C@H](CNc2ncnc(N3CCOC[C@@H]3c3ccc(C(F)(F)F)cn3)c2F)[C@@H](F)C1 (single isomer, unassigned) [Example H6-13-1, 2-((3R*,4R*)-3-fluoro-4-(((5-fluoro-6-((S)-3-(5-(trifluoromethyl)pyridin-2-yl)morpholino)pyrimidin-4-yl)amino)methyl)piperidin-1-yl)acetamide] |
| 86 nM | C[C@@H]1COC[C@H](c2cccc(C(F)(F)F)c2)N1c1ncnc(NC[C@@H]2CCN(CC(N)=O)C[C@H]2O)c1F (single isomer, unassigned) [Example H6-21-3] |
| 488 nM | NC(=O)CN1CC[C@H](CNc2ncnc(N3CC(F)(F)C[C@@H]3c3ccc(C(F)(F)F)cn3)c2F)[C@@H](O)C1 (mixture of isomers) [Example H6-20, 2-((3RS,4RS)-4-(((6-((R)-4,4-difluoro-2-(5-(trifluoromethyl)pyridin-2-yl)pyrrolidin-1-yl)-5-fluoropyrimidin-4-yl)amino)methyl)-3-hydroxypiperidin-1-yl)acetamide] |
| 44 nM | C[C@@H]1COC[C@H](c2ccc(C(F)(F)F)cc2)N1c1ncnc(NC[C@@H]2CCN(CC(N)=O)C[C@H]2O)c1F (single isomer, unassigned) [Example H6-22-1] |
| 60 nM | NC(=O)CN1CC[C@H](CNc2ncnc(N3CC(F)(F)C[C@@H]3c3ccc(C(F)(F)F)cn3)c2F)[C@@H](F)C1 (single isomer, unassigned) [Example H6-18-2, 2-((3R*,4R*)-4-(((6-((R)-4,4-difluoro-2-(5-(trifluoromethyl)pyridin-2-yl)pyrrolidin-1-yl)-5-fluoropyrimidin-4-yl)amino)methyl)-3-fluoropiperidin-1-yl)acetamide] |
| 120 nM | C[C@@H]1COC[C@H](c2cccc(C(F)(F)F)c2)N1c1ncnc(NC[C@@H]2CCN(CC(N)=O)C[C@H]2O)c1F (single isomer, unassigned) [Example H6-21-4] |
| 39 nM | NC(=O)CN1CC[C@H](CNc2ncnc(N3CCOC[C@@H]3c3ccc(C(F)(F)F)cc3)c2F)[C@@H](F)C1 (single isomer, unassigned) [Example H6-10-1, 2-((3R*,4R*)-3-fluoro-4-(((5-fluoro-6-((S)-3-(4-(trifluoromethyl)phenyl)morpholino)pyrimidin-4-yl)amino)methyl)piperidin-1-yl)acetamide] |
| 300 nM | NC(=O)CN1CCC(CNc2ncnc(N3CCC3c3ccc(C(F)(F)F)cc3)c2F)CC1 (stereo not shown) [Example H6-28, 2-(4-(((5-fluoro-6-(2-(4-(trifluoromethyl)phenyl)azetidin-1-yl)pyrimidin-4-yl)amino)methyl)piperidin-1-yl)acetamide] |
| 550 nM | NC(=O)CN1CC[C@H](CNc2ncnc(N3CCOC[C@@H]3c3ccc(C(F)(F)F)cn3)c2F)[C@H](F)C1 (single isomer, unassigned) [Example H6-12-1, 2-((3R*,4S*)-3-fluoro-4-(((5-fluoro-6-((S)-3-(5-(trifluoromethyl)pyridin-2-yl)morpholino)pyrimidin-4-yl)amino)methyl)piperidin-1-yl)acetamide] |
| 88 nM | NC(=O)CN1CCC(CNc2ncnc(N3CCCC3c3ccc(C(F)(F)F)cc3)c2F)CC1 (stereo not shown) [Example H6-25, 2-(4-(((5-fluoro-6-(2-(4-(trifluoromethyl)phenyl)pyrrolidin-1-yl)pyrimidin-4-yl)amino)methyl)piperidin-1-yl)acetamide] |
| 140 nM | NC(=O)CN1CCC(CNc2ncnc(N3CC(F)(F)CC3c3ccc(C(F)(F)F)cc3)c2F)CC1 (stereo not shown) [Example H6-24, 2-(4-(((6-(4,4-difluoro-2-(4-(trifluoromethyl)phenyl)pyrrolidin-1-yl)-5-fluoropyrimidin-4-yl)amino)methyl)piperidin-1-yl)acetamide] |
| 280 nM | CC(C)(C(N)=O)N1CCC(CNc2ncnc(N3CCOC[C@@H]3c3ccc(C(F)(F)F)cn3)c2F)CC1 [Example H6-3, (S)-2-(4-(((5-fluoro-6-(3-(5-(trifluoromethyl)pyridin-2-yl)morpholino)pyrimidin-4-yl)amino)methyl)piperidin-1-yl)-2-methylpropanamide] |
| 160 nM | NC(=O)CN1CCC(F)(CNc2ncnc(N3CCOC[C@@H]3c3ccc(C(F)(F)F)cn3)c2F)CC1 [Example H6-8, (S)-2-(4-fluoro-4-(((5-fluoro-6-(3-(5-(trifluoromethyl)pyridin-2-yl)morpholino)pyrimidin-4-yl)amino)methyl)piperidin-1-yl)acetamide] |
| 210 nM | NC(=O)CN1CCC(CNc2ncnc(N3C[C@H](F)C[C@@H]3c3ccc(C(F)(F)F)cc3)c2F)CC1 (racemic) [Example H6-27, rac-2-(4-(((5-fluoro-6-((2R,4R)-4-fluoro-2-(4-(trifluoromethyl)phenyl)pyrrolidin-1-yl)pyrimidin-4-yl)amino)methyl)piperidin-1-yl)acetamide] |
| 140 nM | NC(=O)CN1CC[C@H](CNc2ncnc(N3CC(F)(F)C[C@@H]3c3ccc(C(F)(F)F)cn3)c2F)[C@@H](F)C1 (single isomer, unassigned) [Example H6-18-1, 2-((3R*,4R*)-4-(((6-((R)-4,4-difluoro-2-(5-(trifluoromethyl)pyridin-2-yl)pyrrolidin-1-yl)-5-fluoropyrimidin-4-yl)amino)methyl)-3-fluoropiperidin-1-yl)acetamide] |
| 440 nM | NC(=O)CN1CCC(CNc2ncnc(N3CCCC3c3ccc(C(F)(F)F)cc3O)c2F)CC1 (stereo not shown) [Example H6-26, 2-(4-(((5-fluoro-6-(2-(2-hydroxy-4-(trifluoromethyl)phenyl)pyrrolidin-1-yl)pyrimidin-4-yl)amino)methyl)piperidin-1-yl)acetamide] |

Same assay, conditions: comparison compounds from WO2016020295, Tables 5 and 6; read-out: Gal4 assay IC50

| IC50 | Structure (SMILES) |
| --- | --- |
| < 500 nM | NC(=O)Cc1ccc(CNc2ncnc(N3CCOC[C@@H]3c3ccc(C(F)(F)F)cc3)c2F)cc1 [Example 204, reference compound] |
